# Results from publication PMC6691788, “Design and synthesis of phthalazine-based compounds as potent anticancer agents with potential antiangiogenic activity via VEGFR-2 inhibition” (Journal of Enzyme Inhibition and Medicinal Chemistry, 2019).
# Tests used:
# Test in all cases: NCI 60 cell panel SRB screen
# T-47D = type: cell-based; conditions: Homo sapiens, T47D, read-out: percent cell growth promotion
# RPMI-8226 = type: cell-based; conditions: Homo sapiens; RPMI-8226, single dose 10 μM; read-out: percent cell growth promotion
# SK-OV-3 = type: cell-based; conditions: Homo sapiens; SK-OV-3, single dose 10 μM; read-out: percent cell growth promotion
# UACC-257 = type: cell-based; conditions: Homo sapiens, UACC-257, read-out: percent cell growth promotion
# HS 578T = type: cell-based; conditions: Homo sapiens, Hs-578T, read-out: percent cell growth promotion
# NCI-H322M = type: cell-based; conditions: Homo sapiens, single dose 10 μM, read-out: percent cell growth promotion
# HOP-62 = type: cell-based; conditions: Homo sapiens; HOP-62, single dose 10 μM; read-out: percent cell growth promotion
# SNB-19 = type: cell-based; conditions: Homo sapiens; SNB-19, single dose 10 μM; read-out: percent cell growth promotion
# ACHN = type: cell-based; conditions: Homo sapiens, single dose 10 μM, read-out: percent cell growth promotion
# DU-145 = type: cell-based; conditions: Homo sapiens; DU-145, single dose 10 μM; read-out: percent cell growth promotion
# LOX IMVI = type: cell-based; conditions: Homo sapiens, read-out: percent cell growth promotion
# SNB-75 = type: cell-based; conditions: Homo sapiens; SNB-75, single dose 10 μM; read-out: percent cell growth promotion
# HOP-92 = type: cell-based; conditions: Homo sapiens; HOP-92, single dose 10 μM; read-out: percent cell growth promotion
# HCT-15 = type: cell-based; conditions: Homo sapiens; HCT-15, single dose 10 μM; read-out: percent cell growth promotion
# NCI-H226 = type: cell-based; conditions: Homo sapiens; NCI-H226, single dose 10 μM; read-out: percent cell growth promotion
# MDA-MB 231/ATCC = type: cell-based; conditions: Homo sapiens, MDA-MB-231, read-out: percent cell growth promotion
# BT-549 = type: cell-based; conditions: Homo sapiens, BT-549, read-out: percent cell growth promotion
# SR = type: cell-based; conditions: Homo sapiens, single dose 10 μM, read-out: percent cell growth promotion
# HCT-116 = type: cell-based; conditions: Homo sapiens; HCT-116, single dose 10 μM; read-out: percent cell growth promotion
# OVCAR-5 = type: cell-based; conditions: Homo sapiens; OVCAR-5, single dose 10 μM; read-out: percent cell growth promotion
# TK-10 = type: cell-based, human; conditions: Homo sapiens; TK-10, single dose 10 μM; read-out: percent cell growth promotion
# UACC-62 = type: cell-based; conditions: Homo sapiens, UACC-62, read-out: percent cell growth promotion
# SN12C = type: cell-based; conditions: Homo sapiens, single dose 10 μM, read-out: percent cell growth promotion
# SF-268 = type: cell-based; conditions: Homo sapiens; SF-268, single dose 10 μM; read-out: percent cell growth promotion
# MOLT-4 = type: cell-based; conditions: Homo sapiens; MOLT-4, single dose 10 μM; read-out: percent cell growth promotion
# K-562 = type: cell-based; conditions: Homo sapiens, K562; K-562, single dose 10 μM; read-out: percent cell growth promotion
# MCF7 = type: cell-based; conditions: Homo sapiens, MCF7, read-out: percent cell growth promotion
# KM12 = type: cell-based; conditions: Homo sapiens; KM12, single dose 10 μM; read-out: percent cell growth promotion
# HCC-2998 = type: cell-based; conditions: Homo sapiens; HCC-2998, single dose 10 μM; read-out: percent cell growth promotion
# CAKI-1 = type: cell-based, human; conditions: Homo sapiens; CAKI-1, single dose 10 μM; read-out: percent cell growth promotion
# U251 = type: cell-based; conditions: Homo sapiens, U-251; U251, single dose 10 μM; read-out: percent cell growth promotion
# CCRF-CEM = type: cell-based, human; conditions: Homo sapiens, single dose 10 μM, read-out: percent cell growth promotion
smiles,measurement,setting,value
"Cc1nnc(Nc2ccc(NC(=O)c3ccc(Cl)cc3)cc2)c2ccccc12 [Compound 5d, 4-Chloro-N-(4–(4-methylphthalazin-1-ylamino)phenyl)benzamide]",activity at 10 µM,T-47D,79.8%
same,activity at 10 µM,RPMI-8226,89.3%
same,activity at 10 µM,SK-OV-3,83.5%
same,activity at 10 µM,UACC-257,97.4%
same,activity at 10 µM,HS 578T,89.7%
same,activity at 10 µM,NCI-H322M,112%
same,activity at 10 µM,HOP-62,88.8%
same,activity at 10 µM,SNB-19,92%
same,activity at 10 µM,ACHN,111%
same,activity at 10 µM,DU-145,102%
same,activity at 10 µM,LOX IMVI,91.9%
same,activity at 10 µM,SNB-75,81.2%
same,activity at 10 µM,HOP-92,55.4%
same,activity at 10 µM,HCT-15,101%
same,activity at 10 µM,NCI-H226,76.3%
same,activity at 10 µM,MDA-MB 231/ATCC,73%
same,activity at 10 µM,BT-549,92.2%
same,activity at 10 µM,SR,86.3%
same,activity at 10 µM,HCT-116,92.2%
same,activity at 10 µM,OVCAR-5,98.5%
same,activity at 10 µM,TK-10,109%
same,activity at 10 µM,UACC-62,95.9%
same,activity at 10 µM,SN12C,91%
same,activity at 10 µM,SF-268,90%
same,activity at 10 µM,MOLT-4,83.5%
same,activity at 10 µM,K-562,101%
same,activity at 10 µM,MCF7,84.5%
same,activity at 10 µM,KM12,101%
same,activity at 10 µM,HCC-2998,125%
same,activity at 10 µM,CAKI-1,86.3%
same,activity at 10 µM,U251,81%
same,activity at 10 µM,CCRF-CEM,91%
